Measured values from patent US11339170B1, “Spiropyrrolidine derived antiviral agents” (priority 2021, dated 2022).
Where two headings read alike, the source gives them in different places.

What was measured:
[1] = target: SARS-CoV-2 3CL-protease (Severe acute respiratory syndrome coronavirus 2 (2019-nCoV) (SARS-CoV-2), UniProt P0DTD1); experiment: SARS-CoV-2 3C-like (3CL) protease fluorescence assay (FRET); type: biochemical
[2] = system: 229E human corona virus (hCoV); experiment: 229E live virus assay (CPE, ATPlite readout) in MRC-5 cells; type: cell-based, hCoV-229E; conditions: Human coronavirus 229E, MRC5, 144 h, read-out: 229E EC50
[3] = recombinant SARS-CoV-2 3CL-protease 10 nM, 30 min preincubation, duplicate, read-out: FRET IC50

SMILES	IC50 ([1]; read-out: FRET IC50, recombinant SARS-CoV-2 3CL-protease 10 nM, 30 min preincubation, duplicate)	IC50 [1, 3]	IC50 [1]	EC50 [2]	EC50 ([2]; MRC-5 cells, MOI 0.05, 6 days at 34° C., ATPlite, duplicate)
CC(C)C[C@@H](C(=O)N1C[C@]2(C[C@H]1C#N)C(=O)Nc1ccccc12)N(C)C(=O)C(=O)Nc1ccc(F)cc1F [Compound 1]	< 100 nM				
CC(C)C[C@@H](C(=O)N1C[C@]2(C[C@H]1C#N)C(=O)Nc1ccccc12)N(C)C(=O)C(=O)Nc1ccc(F)cc1F [Compound 2]		< 100 nM			
CC(C)C[C@@H](C(=O)N1C[C@]2(C[C@H]1C#N)C(=O)Nc1ccccc12)N(C)C(=O)C(=O)Nc1ccccc1 [Compound 3]			< 100 nM	< 100 nM	
CC(C)C[C@@H](C(=O)N1C[C@]2(C[C@H]1C#N)C(=O)Nc1ccccc12)N(C)C(=O)C(=O)Nc1ccc(F)cc1 [Compound 4]			< 100 nM	< 100 nM	
CC(C)C[C@@H](C(=O)N1C[C@]2(C[C@H]1C#N)C(=O)Nc1ccccc12)N(C)C(=O)C(=O)Nc1ccc(F)c(F)c1 [Compound 5]			100 to 1000 nM	< 100 nM	
CC(C)C[C@@H](C(=O)N1C[C@]2(C[C@H]1C#N)C(=O)Nc1ccccc12)N(C)C(=O)C(=O)Nc1cc(F)c(F)c(F)c1 [Compound 6]			100 to 1000 nM	< 100 nM	
CC(C)C[C@@H](C(=O)N1C[C@]2(C[C@H]1C#N)C(=O)Nc1ccccc12)N(C)C(=O)C(=O)Nc1ccc2ccccc2c1 [Compound 7]			< 100 nM	< 100 nM	
CC(C)C[C@@H](C(=O)N1C[C@]2(C[C@H]1C#N)C(=O)Nc1ccccc12)N(C)C(=O)C(=O)Nc1cccc2ccccc12 [Compound 8]			< 100 nM	< 100 nM	
CC(C)C[C@@H](C(=O)N1C[C@]2(C[C@H]1C#N)C(=O)Nc1ccccc12)N(C)C(=O)C(=O)N(C)c1ccccc1 [Compound 9]			< 100 nM	< 100 nM	
CC(C)C[C@@H](C(=O)N1C[C@]2(C[C@H]1C#N)C(=O)Nc1ccccc12)N(C)C(=O)C(=O)N(C)c1ccc(F)cc1 [Compound 10]			< 100 nM	< 100 nM	
CC(C)C[C@@H](C(=O)N1C[C@]2(C[C@H]1C#N)C(=O)Nc1ccccc12)N(C)C(=O)C(=O)Nc1ccc2cccnc2c1 [Compound 11]			< 100 nM	< 100 nM	
CC(C)C[C@@H](C(=O)N1C[C@]2(C[C@H]1C#N)C(=O)Nc1ccccc12)N(C)C(=O)C(=O)Nc1ccc2cnccc2c1 [Compound 12]			< 100 nM	< 100 nM	
CC(C)C[C@@H](C(=O)N1C[C@]2(C[C@H]1C#N)C(=O)Nc1ccccc12)N(C)C(=O)C(=O)Nc1ccc2ccccc2n1 [Compound 13]			< 100 nM	< 100 nM	
CC(C)C[C@@H](C(=O)N1C[C@]2(C[C@H]1C#N)C(=O)Nc1ccccc12)N(C)C(=O)C(=O)Nc1ccc2ncccc2c1 [Compound 14]			< 100 nM	< 100 nM	
CC(C)C[C@@H](C(=O)N1C[C@]2(C[C@H]1C#N)C(=O)Nc1ccccc12)N(C)C(=O)C(=O)Nc1cnc2ccccc2c1 [Compound 15]			< 100 nM	< 100 nM	
CC(C)C[C@@H](C(=O)N1C[C@]2(C[C@H]1C#N)C(=O)Nc1ccccc12)N(C)C(=O)C(=O)Nc1nn(C)c2ccccc12 [Compound 16]			< 100 nM	< 100 nM	
CC(C)C[C@@H](C(=O)N1C[C@]2(C[C@H]1C#N)C(=O)Nc1ccccc12)N(C)C(=O)C(=O)Nc1nc2ccccc2s1 [Compound 17]			< 100 nM	< 100 nM	
CC(C)C[C@@H](C(=O)N1C[C@]2(C[C@H]1C#N)C(=O)Nc1ccccc12)N(C)C(=O)C(=O)Nc1nc2ccccc2n1C [Compound 18]			< 100 nM	< 100 nM	
CC(C)C[C@@H](C(=O)N1C[C@]2(C[C@H]1C#N)C(=O)Nc1ccccc12)N(C)C(=O)C(=O)Nc1n[nH]c2ccccc12 [Compound 19]		< 100 nM			< 100 nM
CN(C(=O)C(=O)Nc1ccc(F)cc1F)[C@@H](CC(C)(C)C)C(=O)N1C[C@]2(C[C@H]1C#N)C(=O)Nc1ccccc12 [Compound 20]			< 100 nM	< 100 nM	
CN(C(=O)C(=O)Nc1ccc(F)cc1)[C@@H](CC(C)(C)C)C(=O)N1C[C@]2(C[C@H]1C#N)C(=O)Nc1ccccc12 [Compound 21]			< 100 nM	< 100 nM	
[2H]C([2H])([2H])N(C(=O)C(=O)Nc1ccc(F)cc1)[C@@H](CC(C)(C)C)C(=O)N1C[C@]2(C[C@H]1C#N)C(=O)Nc1ccccc12 [Compound 22]			< 100 nM	< 100 nM	

SMILES	IC50 ([1]; read-out: FRET IC50, recombinant SARS-CoV-2 3CL-protease 10 nM, 30 min preincubation, duplicate)	IC50 [1, 3]	IC50 [1]	EC50 [2]	EC50 ([2]; MRC-5 cells, MOI 0.05, 6 days at 34° C., ATPlite, duplicate)
[2H]C([2H])([2H])N(C(=O)C(=O)Nc1ccc(F)cc1F)[C@@H](CC(C)(C)C)C(=O)N1C[C@]2(C[C@H]1C#N)C(=O)Nc1ccccc12 [Compound 23]			< 100 nM	< 100 nM	
[2H]C([2H])([2H])N(C(=O)C(=O)Nc1ccc(F)c(F)c1)[C@@H](CC(C)(C)C)C(=O)N1C[C@]2(C[C@H]1C#N)C(=O)Nc1ccccc12 [Compound 24]			< 100 nM	< 100 nM	
[2H]C([2H])([2H])N(C(=O)C(=O)NC1CCC1)[C@@H](CC(C)(C)C)C(=O)N1C[C@]2(C[C@H]1C#N)C(=O)Nc1ccccc12 [Compound 25]			< 100 nM	< 100 nM	
[2H]C([2H])([2H])N(C(=O)C(=O)NC1CCCCC1)[C@@H](CC(C)(C)C)C(=O)N1C[C@]2(C[C@H]1C#N)C(=O)Nc1ccccc12 [Compound 26]			< 100 nM	< 100 nM	
[2H]C([2H])([2H])N(C(=O)C(=O)Nc1ccccn1)[C@@H](CC(C)(C)C)C(=O)N1C[C@]2(C[C@H]1C#N)C(=O)Nc1ccccc12 [Compound 27]			100 to 1000 nM	< 100 nM	
[2H]C([2H])([2H])N(C(=O)C(=O)N1CCCCC1)[C@@H](CC(C)(C)C)C(=O)N1C[C@]2(C[C@H]1C#N)C(=O)Nc1ccccc12 [Compound 29]			100 to 1000 nM	< 100 nM	
[2H]C([2H])([2H])N(C(=O)C(=O)Nc1ccc(F)cc1)[C@@H](Cc1ccccc1)C(=O)N1C[C@]2(C[C@H]1C#N)C(=O)Nc1ccccc12 [Compound 30]			< 100 nM	< 100 nM	
[2H]C([2H])([2H])N(C(=O)C(=O)NC1CCCC1)[C@@H](CC(C)(C)C)C(=O)N1C[C@]2(C[C@H]1C#N)C(=O)Nc1ccccc12 [Compound 31]			< 100 nM	< 100 nM	
[2H]C([2H])([2H])N(C(=O)C(=O)Nc1ccccc1)[C@@H](Cc1ccccc1)C(=O)N1C[C@]2(C[C@H]1C#N)C(=O)Nc1ccccc12 [Compound 32]			< 100 nM	< 100 nM	
[2H]C([2H])([2H])N(C(=O)C(=O)Nc1ccccn1)[C@@H](Cc1ccccc1)C(=O)N1C[C@]2(C[C@H]1C#N)C(=O)Nc1ccccc12 [Compound 33]			< 100 nM	< 100 nM	
[2H]C([2H])([2H])N(C(=O)C(=O)NC1CC1)[C@@H](Cc1ccccc1)C(=O)N1C[C@]2(C[C@H]1C#N)C(=O)Nc1ccccc12 [Compound 34]			< 100 nM	< 100 nM	
[2H]C([2H])([2H])N(C(=O)C(=O)Nc1c(C)cccc1C)[C@@H](CC(C)(C)C)C(=O)N1C[C@]2(C[C@H]1C#N)C(=O)Nc1ccccc12 [Compound 35]			< 100 nM	< 100 nM	
[2H]C([2H])([2H])N(C(=O)C(=O)N(C)c1ccccc1)[C@@H](CC(C)(C)C)C(=O)N1C[C@]2(C[C@H]1C#N)C(=O)Nc1ccccc12 [Compound 36]			> 1000 nM	100 to 1000 nM	
[2H]C([2H])([2H])N(C(=O)C(=O)Nc1ccc2ncccc2c1)[C@@H](CC(C)(C)C)C(=O)N1C[C@]2(C[C@H]1C#N)C(=O)Nc1ccccc12 [Compound 37]			< 100 nM	< 100 nM	
[2H]C([2H])([2H])N(C(=O)C(=O)Nc1ccc(F)c(F)c1)[C@@H](CC1CC1)C(=O)N1C[C@]2(C[C@H]1C#N)C(=O)Nc1ccccc12 [Compound 38]			< 100 nM	< 100 nM	
[2H]C([2H])([2H])N(C(=O)C(=O)Nc1ccc(F)cc1)[C@@H](CC1CC1)C(=O)N1C[C@]2(C[C@H]1C#N)C(=O)Nc1ccccc12 [Compound 39]			< 100 nM	< 100 nM	
CC(C)C[C@@H](C(=O)N1C[C@]2(C[C@H]1C#N)C(=O)Nc1ccccc12)N(C)C(=O)C(=O)NC1CC1 [Compound 40]			< 100 nM	< 100 nM	
CC(C)C[C@@H](C(=O)N1C[C@]2(C[C@H]1C#N)C(=O)Nc1ccccc12)N(C)C(=O)C(=O)c1ccc(F)cc1 [Compound 41]			< 100 nM	< 100 nM	
CC(C)C[C@@H](C(=O)N1C[C@]2(C[C@H]1C#N)C(=O)Nc1ccccc12)N(C)C(=O)C(=O)N(C)C1CC1 [Compound 42]			< 100 nM	< 100 nM	
CC(C)C[C@@H](C(=O)N1C[C@]2(C[C@H]1C#N)C(=O)Nc1ccccc12)N(C)C(=O)C(=O)C1CC1 [Compound 43]			< 100 nM	< 100 nM	
CC(C)(C)C[C@H](NC(=O)C(=O)NC(C)(C)C)C(=O)N1C[C@]2(C[C@H]1C#N)C(=O)Nc1ccccc12 [Compound 69]			< 100 nM		
